According to patent US20220241266A1, “COMPOSITIONS AND METHODS USING TRIGONELLINE AND HIGH PROTEIN FOR PREVENTING OR TREATING CONDITIONS OR DISORDERS IN SKELETAL MUSCLE” (SOCIETE DES PRODUITS NESTLE S.A., priority 2019, published 2022):

Tests used:
[1] = system: C57BL/6JRj male mice; assay: Liver NAD+ in mice after oral gavage; assay type: in vivo; conditions: equimolar of 300 mg/kg trigonelline, 120 minutes
Procedure: FIG. 5—Liver NAD^+ levels of C57BL/6JRj mice measured 120 minutes after administration of 300 mg/kg trigonelline chloride or an equimolar amount of fenugreek seed extract by oral gavage
10 weeks C57BL/6JRj male mice received trigonelline (sigma #T5509) or fenugreek seed extract enriched in trigonelline (40.45% trigonelline) by oral gavage (equimolar of 300 mg/kg trigonelline, n=8/group). After 120 minutes treatment, the liver was harvested and flash frozen in liquid nitrogen. NAD^+ was measured in liver using an enzymatic method adapted from Dall, M., et al., Mol Cell Endocrinol, 2018. 473: p. 245-256.

[2] = system: Human Skeletal Muscle Myotubes (HSMM); assay: Colorimetric NAD+ quantification in differentiated human primary myoblasts; assay type: cell-based; conditions: 16 h, different doses
Procedure: After one day, the differentiation is induced by a medium change for 4 days. Cells were treated with synthetic trigonelline monohydrate (FIG. 4A) or with Fenugreek seed extract enriched in trigonelline containing 40.45% trigonelline (FIG. 4B) for 16 h at difference doses. NAD^+ was measured using colorimetric NAD^+ quantification assay (Biovision NAD^+/NADH Quantitation Colorimetric Kit #k337-100).

[3] = system: Human Skeletal Muscle Myotubes (HSMM); conditions: 6 h, 500 μm
Procedure: Human primary myoblasts from two different donors were seeded in 6 well plates at a density of 200,000 cells per well in skeletal muscle growth medium (SKM-M, AMSbio). After one day, the differentiation was induced by a medium change for 4 days using differentiation culture medium (Gibco No. 31330-028). Cells were treated with isotopically labelled trigonelline (^13C carbonyl; 3^2H on methyl) for 6 h.
Cell extracts were separated on a Vanquish UHPLC+focused LC system (Thermo Scientific) with a hydrophilic liquid chromatography (HILIC) iHILIC-Fusion(P) column (Hilicon) carrying the dimensions 150×2.1 mm, 5 μm and a guard column (iHILIC-fusion(P), Hilicon) in front. The separation of metabolites was achieved by applying a linear solvent gradient in normal phase at 0.25 mL/min flow rate and 35° C. of temperature. As mobile phase, solvent A was water with 10 mM ammonium acetate and 0.04% (v/v) ammonium hydroxide, pH ˜9.3, and solvent B was acetonitrile.
The eluting metabolites were analyzed with an Orbitrap Fusion Lumos mass spectrometer (Thermo Scientific) with a heated electrospray ionization (H-ESI) source in positive and negative mode at a resolution of 60,000 at m/z of 200. Instrument control and data analysis were conducted using Xcalibur (Thermo Scientific).

[4] = system: C. elegans; conditions: 1 mM, day 8 and day 11 old worms, vs control
Excerpt: 45 to 60 worms per condition were manually scored for mobility after poking. Worms that were unable to respond to any repeated stimulation were scored as dead. […] Trigonelline treatment and experimental measurements were started at Day 1 of wild type N2 worm adulthood, in a regimen of chronic exposure till experiments termination.

[5] = system: C. elegans; conditions: 1 mM, vs control
Procedure: C. elegans mobility test was performed using the Movement Tracker software (Mouchiroud, L. et al. Curr Protoc Neurosci 77, 8.37.1-8.37.21 (2016)). The experiments were repeated at least twice. Trigonelline treatment and experimental measurements were started at Day 1 of wild type N2 worm adulthood, in a regimen of chronic exposure till experiments termination.

[6] = system: C. elegans; conditions: 1 mM, chronic exposure from Day 1 adulthood
Procedure: Worm lifespan tests were performed using about 100 animals per condition and scored manually every other day. Trigonelline treatment and experimental measurements were started at Day 1 of wild type N2 worm adulthood, in a regimen of chronic exposure till experiments termination.

[7] = system: RW1596 (myo-3p::GFP) worms; conditions: 1 mM trigonelline chloride, 11 day old worms vs age matched control
Procedure: RW1596 (myo-3p::GFP) worms were collected at Day 1 (young adults) and at Day 11 (aged animals) for muscle integrity assessment. Worms were immobilized with tetramisole and analyzed by confocal microscopy, to assess the muscle fibers morphology shown by GFP fluorescence imaging. Trigonelline treatment with 1 mM trigonelline chloride and experimental measurements were started at Day 1 of wild type N2 worm adulthood, in a regimen of chronic exposure till experiments termination.

[8] = system: C. elegans; conditions: 1 mM trigonelline chloride, day 8 old worms, vs control
Procedure: Absolute quantification of the mtDNA copy number in wild type N2 worms was performed by real-time PCR. Relative values for nduo-1, and act-1 were compared within each sample to generate a ratio representing the relative level of mitochondrial DNA per nuclear genome. The average of at least two technical repeats was used for each biological data point. Each experiment was performed on at least ten independent biological samples (individual worms). Trigonelline treatment with 1 mM trigonelline chloride and experimental measurements were started at Day 1 of wild type N2 worm adulthood, in a regimen of chronic exposure till experiments termination.

Question: What does the source list for C[n+]1cccc(C(=O)[O-])c1 [chemically synthesized trigonelline, trigonelline monohydrate]?
Answer: NAD+ content in the liver compared to the control [1]: significant increase in NAD^+ content in the liver; NAD+ content compared to the control [2]: significant increase in NAD^+ content

Question: With [2H]C([2H])([2H])[n+]1cccc([13C](=O)[O-])c1 [labelled trigonelline] as the molecule, how does the “relative abundance of labelled NAD+ (M+1)” value ([3]; HSMM, vs naturally occurring NAD+ control) read?
Answer: increase in relative abundance of labelled NAD+ (M+1)

Question: Which results are given for C[n+]1cccc(C(=O)O)c1.[Cl-] [trigonelline chloride]?
Answer: stimulated mobility score (worms responsive to a physical stimulus) [4]: more responsive to a physical stimulus than the control; distance travelled during spontaneous mobility assay ([5]; advanced aging phase): significantly increased; mean speed during spontaneous mobility assay ([5]; from day 1 adulthood): increased the mean speed compared to the control; increase of lifespan [6]: 21%

Question: How did the “myofibrillar structure (GFP-tagged myosin)” value [7] turn out when C[n+]1cccc(C(=O)[O-])c1 [trigonelline, 1-methylpyridin-1-ium-3-carboxylate] was run?
Answer: improved more organized myofibrillar structure

Question: And the “ratio of mitochondrial-encoded gene (nduo-1) to nuclear-encoded gene (act-1)” value [8]?
Answer: higher than in the control group

Question: And the “NAD+ relative concentration relative to control (LC-MS)” value ([3]; HSMM from 2 donors)?
Answer: enhancement of NAD+
